Measurements: patent US9023852B2, “1, 2, 4-thiadiazol-5-ylpiperazine derivatives useful in the treatment of neurodegenerative diseases” (Remynd NV, priority 2011, dated 2015)

System: M17—3TAU(P301L) cells
Assay: Neuroblastoma tauopathy model: inhibition of TAU-induced cytotoxicity (LDH)
Type: cell-based
Conditions: Homo sapiens, 168 h; inhibition of TAU-induced toxicity (LDH), 7 days differentiation with retinoic acid
In short: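 BE-M17 neuroblastoma cells stably expressing human TAU-P301L, differentiated with RA (2.5 μM in added medium) for 7 days at 37 °C with compounds at a range of concentrations. Cytotoxicity as supernatant LDH over total LDH (Cytotox 96); EC50 from dose-dependent inhibition curve.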

| SMILES | EC50 |
| --- | --- |
| Cc1ccccc1CN1CCN(c2nc(-c3ccc(F)c(F)c3)ns2)CC1 [Example 107, 1-[3-(3,4-Difluoro-phenyl)-[1,2,4]thiadiazol-5-yl]-4-(2-methyl-benzyl)-piperazine] | 72.2 nM |
| Fc1ccc(CCN2CCN(c3nc(-c4cccc(Cl)c4)ns3)CC2)cc1F [Example 135, 1-[3-(3-Chloro-phenyl)-[1,2,4]thiadiazol-5-yl]-4-[2-(3,4-difluoro-phenyl)-ethyl]-piperazine] | 4.5 nM |
| COc1ccc(CCN2CCN(c3nc(-c4cnccn4)ns3)CC2)cc1 [Example 76, 2-(5-{4-[2-(4-Methoxy-phenyl)-ethyl]-piperazin-1-yl}-[1,2,4]thiadiazol-3-yl)-pyrazine] | 40.8 nM |
| Cc1ccccc1CN1CCN(c2nc(-c3cncc(Cl)c3)ns2)CC1 [Example 151, 1-[3-(5-Chloro-pyridin-3-yl)-[1,2,4]thiadiazol-5-yl]-4-(2-methyl-benzyl)-piperazine] | 8.2 nM |
| Fc1ccc(CCN2CCN(c3nc(-c4cc(Cl)ccn4)ns3)CC2)cc1 [Example 122, 1-[3-(4-Chloro-pyridin-2-yl)-[1,2,4]thiadiazol-5-yl]-4-[2-(4-fluoro-phenyl)-ethyl]-piperazine] | 42.5 nM |
| COc1cccc(-c2nsc(N3CCN(Cc4ccccc4C)CC3)n2)c1 [Example 13, 1-[3-(3-Methoxy-phenyl)-[1,2,4]thiadiazol-5-yl]-4-(2-methyl-benzyl)-piperazine] | 215 nM |
| Clc1ccc(CCN2CCN(c3nc(-c4cccc(Cl)c4)ns3)CC2)cc1 [Example 87, 1-[2-(4-Chloro-phenyl)-ethyl]-4-[3-(3-chloro-phenyl)-[1,2,4]thiadiazol-5-yl]-piperazine] | 13.1 nM |
| COc1ccc(CCN2CCN(c3nc(-c4cncc(Cl)c4)ns3)CC2)cc1 [Example 91, 1-[3-(5-Chloro-pyridin-3-yl)-[1,2,4]thiadiazol-5-yl]-4-[2-(4-methoxy-phenyl)-ethyl]-piperazine] | 0.9 nM |
| Cc1ccc(-c2nsc(N3CCN(Cc4ccccc4C)CC3)n2)cn1 [Example 150, 1-(2-Methyl-benzyl)-4-[3-(6-methyl-pyridin-3-yl)-[1,2,4]thiadiazol-5-yl]-piperazine] | 185 nM |
| N#Cc1ccc(-c2nsc(N3CCN(CCc4ccc(F)c(F)c4)CC3)n2)cc1 [Example 138, 4-(5-{4-[2-(3,4-Difluoro-phenyl)-ethyl]piperazin-1-yl}-[1,2,4]thiadiazol-3-yl)-benzonitrile] | 18.2 nM |
| Fc1ccc(CCN2CCN(c3nc(-c4cc(Cl)ccn4)ns3)CC2)cc1F [Example 157, 3-(4-chloropyridin-2-yl)-5-(4-(3,4-difluorophenethyl)piperazin-1-yl)-1,2,4-thiadiazole] | 29 nM |
| N#Cc1cccc(-c2nsc(N3CCN(CCc4ccc(F)c(F)c4)CC3)n2)c1 [Example 137, 3-(5-{4-[2-(3,4-Difluoro-phenyl)-ethyl]-piperazin-1-yl}-[1,2,4]thiadiazol-3-yl)-benzonitrile] | 6.2 nM |
| Clc1ccc(-c2nsc(N3CCN(CCc4cccc(Cl)c4)CC3)n2)cc1 [Example 22, 1-[2-(3-Chloro-phenyl)-ethyl]-4-[3-(4-chloro-phenyl)-[1,2,4]thiadiazol-5-yl]-piperazine] | 4.2 nM |
| FC(F)(F)c1ccc(CCN2CCN(c3nc(-c4ccc(Cl)cc4)ns3)CC2)cc1 [Example 144, 1-[3-(4-Chloro-phenyl)-[1,2,4]thiadiazol-5-yl]-4-[2-(4-trifluoromethyl-phenyl)-ethyl]-piperazine] | 602 nM |
| COc1cccc(CCN2CCN(c3nc(-c4cccc(OC)c4)ns3)CC2)c1 [Example 15, 1-[2-(3-Methoxy-phenyl)-ethyl]-4-[3-(3-methoxy-phenyl)-[1,2,4]thiadiazol-5-yl]-piperazine] | 21.4 nM |
| COc1ccc(CCN2CCN(c3nc(-c4ccccc4OC)ns3)CC2)cc1 [Example 45, 1-[2-(4-Methoxy-phenyl)-ethyl]-4-[3-(2-methoxy-phenyl)[1,2,4]thiadiazol-5-yl]-piperazine] | 0.7 nM |
| COc1ccc(CCN2CCN(c3nc(-c4cccc(C#N)c4)ns3)CC2)cn1 [Example 115, 3-(5-{4-[2-(6-Methoxy-pyridin-3-yl)-ethyl]-piperazin-1-yl}-[1,2,4]thiadiazol-3-yl)-benzonitrile] | 2.3 nM |
| Cc1ccccc1CN1CCN(c2nc(-c3cccc(Cl)c3)ns2)CC1 [Example 92, 1-[3-(3-Chloro-phenyl)-[1,2,4]thiadiazol-5-yl]-4-(2-methyl-benzyl)-piperazine] | 43.3 nM |
| COc1ccc(CCN2CCN(c3nc(-c4cccc(Cl)c4)ns3)CC2)cn1 [Example 93, 1-[3-(3-Chloro-phenyl)-[1,2,4]thiadiazol-5-yl]-4-[2-(6-methoxy-pyridin-3-yl)-ethyl]-piperazine] | 0.9 nM |
| FC(F)(F)c1ccc(CCN2CCN(c3nc(-c4cncc(Cl)c4)ns3)CC2)cc1 [Example 152, 1-[3-(5-Chloro-pyridin-3-yl)-[1,2,4]thiadiazol-5-yl]-4-[2-(4-trifluoromethyl-phenyl)-ethyl]-piperazine] | 215 nM |
| Cc1ncc(-c2nsc(N3CCN(CCc4ccccc4)CC3)n2)cn1 [Example 178, 3-(2-methylpyrimidin-5-yl)-5-(4-phenethylpiperazin-1-yl)-1,2,4-thiadiazole] | 13.2 nM |
| COc1ccc(CCN2CCN(c3nc(-c4cc(Cl)ccn4)ns3)CC2)cc1 [Example 125, 1-[3-(4-Chloro-pyridin-2-yl)-[1,2,4]thiadiazol-5-yl]-4-[2-(4-methoxy-phenyl)-ethyl]-piperazine] | 3 nM |
| COc1cccc(CCN2CCN(c3nc(-c4ccccc4Cl)ns3)CC2)c1 [Example 57, 1-[3-(2-Chloro-phenyl)-[1,2,4]thiadiazol-5-yl]-4-[2-(3-methoxy-phenyl)-ethyl]-piperazine] | 14.5 nM |
| Cc1ccc(-c2nsc(N3CCN(CCc4ccccc4)CC3)n2)cc1 [Example 4, 1-Phenethyl-4-(3-p-tolyl-[1,2,4]thiadiazol-5-yl)-piperazine] | 115 nM |
| COc1ccc(-c2nsc(N3CCN(CCc4cccc(OC)c4)CC3)n2)cc1 [Example 49, 1-[2-(3-Methoxy-phenyl)-ethyl]-4-[3-(4-methoxy-phenyl)-[1,2,4]thiadiazol-5-yl]-piperazine] | 49.6 nM |
| Cc1ccc(-c2nsc(N3CCN(CCc4ccc(F)cc4)CC3)n2)cn1 [Example 96, 1-[2-(4-Fluoro-phenyl)-ethyl]-4-[3-(6-methyl-pyridin-3-yl)-[1,2,4]thiadiazol-5-yl]-piperazine] | 28.1 nM |
| COc1ccc(C(O)CN2CCN(c3nc(-c4ccc(Cl)cc4)ns3)CC2)cc1 (centres unmarked) [Example 54, 2-{4-[3-(4-Chloro-phenyl)-[1,2,4]thiadiazol-5-yl]-piperazin-1-yl}-1-(4-methoxy-phenyl)-ethanol] | 16.1 nM |
| COc1ccccc1CCCN1CCN(c2nc(-c3ccc(Cl)cc3)ns2)CC1 [Example 39, 1-[3-(4-Chloro-phenyl)-[1,2,4]thiadiazol-5-yl]-4-[3-(2-methoxy-phenyl)-propyl]-piperazine] | 43.5 nM |
| COc1ccc(CCN2CCN(c3nc(-c4ccc(Cl)cn4)ns3)CC2)cc1 [Example 126, 1-[3-(5-Chloro-pyridin-2-yl)-[1,2,4]thiadiazol-5-yl]-4-[2-(4-methoxy-phenyl)-ethyl]-piperazine] | 7 nM |
